Test results reported in patent publication US4797489A, “Adamantyl- and fluorenyl-arylpiperazines and -arylpiperidines” (American Home Products Corp., priority 1987, dated 1989).
Each block holds one compound with its values, some of them ahead of it.

Tests used:
[1] = target: T1, 5-HT1A serotonin receptor (Rattus norvegicus, UniProt P19327); assay: 5-HT1A receptor binding, displacement of ^3 H-8-OH DPAT
T1 construct: 44, 1685-1696 (1985); from tissue
T1 sequence (P19327 1-422): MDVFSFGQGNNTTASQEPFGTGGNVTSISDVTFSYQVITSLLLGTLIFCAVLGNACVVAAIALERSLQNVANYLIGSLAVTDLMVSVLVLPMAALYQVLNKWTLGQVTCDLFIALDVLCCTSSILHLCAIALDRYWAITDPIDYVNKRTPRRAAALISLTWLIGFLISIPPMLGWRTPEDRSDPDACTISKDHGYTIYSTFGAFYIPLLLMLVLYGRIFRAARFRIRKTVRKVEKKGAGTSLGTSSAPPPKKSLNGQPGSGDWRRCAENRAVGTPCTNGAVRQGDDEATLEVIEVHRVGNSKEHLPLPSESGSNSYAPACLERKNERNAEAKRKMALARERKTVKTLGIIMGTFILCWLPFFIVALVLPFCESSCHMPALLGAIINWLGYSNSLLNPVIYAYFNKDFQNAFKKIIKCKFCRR
Description: The serotoninergic properties of the compounds of this invention were established by the procedure of Hall et al., J. Neurochem.

[2] = target: T2, limbic D2 (dopamine) receptor (Rattus norvegicus, UniProt P61169); assay: D2 receptor affinity, inhibition of ^3 H-spiroperidol (^3 H-spirohaloperidol) binding to limbic brain tissue
T2 construct: from tissue; rat inferred

5-HT2 receptor = assay: 5-HT2 inhibition of ^3 H-spiroperidol binding (rat brain cortex homogenate)
Description: 5-HT2 inhibition of ^3 H-spiroperidol is determined in an analogous manner, employing rat brain cortex homogenate as the receptor tissue, following a modification of Fields et al., ibid; Yamamura et al., ibid; and Creese et al., Eu. J. Pharmacol. 49, 20 (1978).

[3] = Barone et al., 1986; cited from earlier work

T2 sequence (P61169 whole entry): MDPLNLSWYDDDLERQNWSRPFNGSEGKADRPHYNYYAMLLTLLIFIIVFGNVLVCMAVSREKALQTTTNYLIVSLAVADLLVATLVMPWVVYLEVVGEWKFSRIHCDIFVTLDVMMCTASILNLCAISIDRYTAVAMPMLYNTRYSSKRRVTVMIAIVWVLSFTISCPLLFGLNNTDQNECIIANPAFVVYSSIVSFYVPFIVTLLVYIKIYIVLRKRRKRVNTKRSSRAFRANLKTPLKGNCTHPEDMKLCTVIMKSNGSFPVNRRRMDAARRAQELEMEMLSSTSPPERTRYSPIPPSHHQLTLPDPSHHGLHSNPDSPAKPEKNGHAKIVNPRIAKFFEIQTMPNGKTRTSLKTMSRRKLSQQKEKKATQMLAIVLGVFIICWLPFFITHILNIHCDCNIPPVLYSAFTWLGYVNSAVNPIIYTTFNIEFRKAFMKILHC

SMILES: O=C1CC2(CCCC2)CC(=O)N1CCCCN1CCN(c2ncccn2)CC1 [Buspirone, reference compound]
inhibition at 0.001 µM ([1]; read-out: percent inhibition (5-HT1A, ^3 H-8-OH DPAT)): 97%

SMILES: O=C(OCCN1CCN(c2ncccn2)CC1)C12CC3CC(CC(C3)C1)C2 [Example 2, Tricyclo[3.3.1.1^3,7]decane-1-carboxylic acid 2-[4-(2-pyrimidinyl)-1-piperazinyl]ethyl ester]
Ki ([1]; ^3 H-8-OH DPAT, Ki calculated from IC50 values): 8.5 nM | inhibition at 1 µM [2]: 26%

SMILES: CC12CC3CC(C1)CC(CC(=O)OCCN1CCN(c4ncccn4)CC1)(C3)C2 [Example 4, 3-Methyltricyclo[3.3.1.1^3,7]decane-1-acetic acid 2-[4-(2-pyrimidinyl)-1-piperazinyl]ethyl ester]
inhibition at 1 µM ([1]; ^3 H-8-OH DPAT): 72% | inhibition at 1 µM [2]: 39%

SMILES: O=C(OCCCN1CCN(c2ncccn2)CC1)C12CC3CC(CC(C3)C1)C2 [Example 7, Tricyclo[3.3.1.1^3,7]decane-1-carboxylic acid 3-[4-(2-pyrimidinyl)-1-piperazinyl]propyl ester]
inhibition at 1 µM ([1]; ^3 H-8-OH DPAT): 69% | inhibition at 1 µM [2]: 33%

SMILES: O=C(OCCN1CCC(=C(c2ccc(F)cc2)c2ccc(F)cc2)CC1)C12CC3CC(CC(C3)C1)C2 [Example 11, Tricyclo[3.3.1.1^3,7]decane-1-carboxylic acid 2-[4-[bis(4-fluorophenyl)methylene]-1-piperidinyl]ethyl ester]
inhibition at 1 µM ([1]; ^3 H-8-OH DPAT): 95% | 5HT2 Receptor Binding % Inhibition at 1 μM (5-HT2 receptor): 98% | inhibition at 1 µM [2]: 100%

SMILES: CC12CC3CC(C1)CC(CC(=O)OCCN1CCC(=C(c4ccc(F)cc4)c4ccc(F)cc4)CC1)(C3)C2 [Example 12, Tricyclo[3.3.1.1^3,7]decane-3-methyl-1-acetic acid 2-[4-[bis(4-fluorophenyl)methylene]-1-piperidinyl]ethyl ester]
5HT2 Receptor Binding % Inhibition at 1 μM (5-HT2 receptor): 63% | inhibition at 1 µM [2]: 36%

SMILES: Cc1nc2sccn2c(=O)c1CCN1CCC(=C(c2ccc(F)cc2)c2ccc(F)cc2)CC1 [Ritanserin]
clinical efficacy as anxiolytic-antidepressant agents [3]: demonstrated clinical efficacy

Continued, values first:

inhibition at 1 µM ([1]; ^3 H-8-OH DPAT): 80% | inhibition at 1 µM [2]: 67%
SMILES: O=C(OCCCN1CCN(c2cccc(Cl)c2)CC1)C12CC3CC(CC(C3)C1)C2 [Example 1, Tricyclo[3.3.1.1^3,7]decane-1-carboxylic acid 3-[4-(3-chlorophenyl)-1-piperazinyl]propyl ester]

inhibition at 1 µM ([1]; ^3 H-8-OH DPAT): 100% | inhibition at 1 µM [2]: 90%
SMILES: COc1ccccc1N1CCN(CCCOC(=O)C23CC4CC(CC(C4)C2)C3)CC1 [Example 3, Tricyclo[3.3.1.1^3,7]decane-1-carboxylic acid 3-[4-(2-methoxyphenyl)-1-piperazinyl]propyl ester]

inhibition at 1 µM ([1]; ^3 H-8-OH DPAT): 100%
SMILES: COc1ccccc1N1CCN(CCOC(=O)c2cccc3c2Cc2ccccc2-3)CC1 [Example 5, 9H-Fluorene-1-carboxylic acid 2-[4-(2-methoxyphenyl)-1-piperazinyl]ethyl ester]

inhibition at 1 µM ([1]; ^3 H-8-OH DPAT): 53%
SMILES: O=C(OCCN1CCN(c2cccc(Cl)c2)CC1)c1cccc2c1Cc1ccccc1-2 [Example 8, 9H-Fluorene-1-carboxylic acid 2-[4-(3-chlorophenyl)-1-piperazinyl]ethyl ester]

inhibition at 1 µM [2]: 90%
SMILES: N#Cc1ccccc1N1CCN(CCOC(=O)C23CC4CC(CC(C4)C2)C3)CC1 [Example 10, Tricyclo[3.3.1.1^3,7]decane-1-carboxylic acid [2-[4-(2-cyanophenyl)-1-piperazinyl]ethyl]ester]
